Source: ChEMBL document CHEMBL1151521, “Balanced AT1 and AT2 angiotensin II antagonists. III. potent and orally active 5--ketosulfoxide imidazolyl biphenyl sulfonylureas” (Bioorg Med Chem Lett, 1995)

Tests used:
[1] = Concentration required for 50% inhibition of [125I]- AII binding to rabbit uterus membrane preparation (AT2); format: tissue-based, Oryctolagus cuniculus
[2] = target: T1, Angiotensin II receptor (AT-1) type-1 (Rattus norvegicus, UniProt P29089+P25095); experiment: Concentration required for 50% inhibition of [125I]- AII binding to rat liver membrane preparation (AT1)
T1 sequence (P29089 whole entry): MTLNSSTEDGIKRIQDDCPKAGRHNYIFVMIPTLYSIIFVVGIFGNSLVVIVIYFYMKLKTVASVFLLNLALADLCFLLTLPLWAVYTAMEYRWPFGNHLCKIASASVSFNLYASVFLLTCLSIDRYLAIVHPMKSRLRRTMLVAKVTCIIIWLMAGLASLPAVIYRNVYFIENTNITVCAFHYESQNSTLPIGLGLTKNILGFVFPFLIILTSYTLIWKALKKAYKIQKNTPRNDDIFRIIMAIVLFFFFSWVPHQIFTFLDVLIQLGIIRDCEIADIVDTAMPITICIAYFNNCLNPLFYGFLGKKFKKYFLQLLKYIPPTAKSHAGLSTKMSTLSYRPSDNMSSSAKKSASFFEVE
T1 sequence (P25095 whole entry): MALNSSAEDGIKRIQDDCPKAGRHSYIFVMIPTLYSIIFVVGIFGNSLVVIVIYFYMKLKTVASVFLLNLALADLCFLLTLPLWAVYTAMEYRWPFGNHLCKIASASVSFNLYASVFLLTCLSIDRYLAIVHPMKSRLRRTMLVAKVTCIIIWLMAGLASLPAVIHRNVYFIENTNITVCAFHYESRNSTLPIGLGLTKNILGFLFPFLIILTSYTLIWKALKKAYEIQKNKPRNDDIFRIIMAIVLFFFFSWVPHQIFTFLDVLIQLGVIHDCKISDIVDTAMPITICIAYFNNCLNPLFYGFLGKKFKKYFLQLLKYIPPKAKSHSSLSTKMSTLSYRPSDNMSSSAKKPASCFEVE

Rattus norvegicus [3] = experiment: Compound was evaluated in vivo, after intravenous administration for the inhibition of the pressor response induced by A II (0.75 ug/kg) in normotensive pithed rats; format: functional; conditions: read-out: ID50 (the source's name)
Rattus norvegicus [4] = experiment: Compound was evaluated in vivo, after peroral administration for the inhibition of the pressor response induced by A II (0.75 ug/kg) in normotensive pithed rats; format: functional; conditions: for ED50: Rattus norvegicus, po, read-out: ID50 (the source's name)

SMILES	IC50 [1]	IC50 [2]	ED50 (Rattus norvegicus [3])	ED50 (Rattus norvegicus [4])	ID50 (Rattus norvegicus [4])
CCCCc1nc(SC)c(C(=O)CC(=O)OCC)n1Cc1ccc(-c2ccccc2S(=O)(=O)NC(=O)NCc2ccccc2)cc1	1 nM	0.09 nM			
CCCCc1nc(SC)c(C(=O)C[S+](C)[O-])n1Cc1ccc(-c2ccccc2S(=O)(=O)NC(=O)NCc2ccccc2)cc1 (configuration not stated)	15 nM	0.3 nM	0.06 mg/kg	0.7 mg/kg	
CCCCc1nc(SC)c(C(=O)CS(=O)(=O)c2ccccc2)n1Cc1ccc(-c2ccccc2S(=O)(=O)NC(=O)NCc2ccccc2)cc1	1.7 nM	0.04 nM	0.02 mg/kg	> 3 mg/kg	
CCCCc1nc(SC)c(C(C)(O)C(=O)O)n1Cc1ccc(-c2ccccc2S(=O)(=O)NC(=O)NCCC)cc1 (configuration not stated)	8.2 nM				
CCCCc1nc(SC)c(C(=O)CS(=O)(=O)c2ccc(F)cc2)n1Cc1ccc(-c2ccccc2S(=O)(=O)NC(=O)NCc2ccccc2)cc1	0.8 nM	0.06 nM	0.12 mg/kg	> 3 mg/kg	
CCCc1nc(SC)c(C(=O)C[S+]([O-])c2ccccc2)n1Cc1ccc(-c2ccccc2S(=O)(=O)NC(=O)NCC2CCCCC2)cc1 (configuration not stated)	4 nM	0.3 nM		3.1 mg/kg	
CCCc1nc(SC)c(C(=O)C[S+]([O-])c2ccccc2)n1Cc1ccc(-c2ccccc2S(=O)(=O)NC(=O)NCC2CCCC2)cc1 (configuration not stated)	7 nM	0.35 nM		> 3 mg/kg	
CCCCc1nc(SC)c(C(=O)CS(C)(=O)=O)n1Cc1ccc(-c2ccccc2S(=O)(=O)NC(=O)NCc2ccccc2)cc1	5.8 nM	0.08 nM	0.04 mg/kg	1.7 mg/kg	
CCCc1nc(SC)c(C(C)=O)n1Cc1ccc(-c2ccccc2S(=O)(=O)NC(=O)NCc2ccccc2)cc1	30 nM	0.08 nM			
CCCc1nc(SC)c(C(=O)C[S+]([O-])c2ccc(C)cc2)n1Cc1ccc(-c2ccccc2S(=O)(=O)NC(=O)NCc2ccccc2)cc1 (single isomer, unassigned; 7h)	4.2 nM	0.03 nM			1.5 mg/kg
CCCc1nc(SC)c(C(=O)CS(=O)(=O)c2ccccc2)n1Cc1ccc(-c2ccccc2S(=O)(=O)NC(=O)NCc2ccccc2)cc1	2.7 nM	0.09 nM	0.04 mg/kg	> 3 mg/kg	
CCCc1nc(SC)c(C(=O)CS(=O)(=O)c2ccc(OC)cc2)n1Cc1ccc(-c2ccccc2S(=O)(=O)NC(=O)NCc2ccccc2)cc1	2.1 nM	0.1 nM	0.07 mg/kg	2 mg/kg	
CCCc1nc(SC)c(C(=O)C[S+]([O-])c2ccccc2)n1Cc1ccc(-c2ccccc2S(=O)(=O)NC(=O)NCc2cccs2)cc1 (configuration not stated)	3.5 nM	0.02 nM		1.4 mg/kg	
CCc1nc(SC)c(C(=O)C[S+]([O-])c2ccccc2)n1Cc1ccc(-c2ccccc2S(=O)(=O)NC(=O)NCc2ccccc2)cc1 (configuration not stated)	1.5 nM	0.07 nM	0.1 mg/kg	2 mg/kg	
CCCCc1nc(SC)c(C(=O)O)n1Cc1ccc(-c2ccccc2S(=O)(=O)NC(=O)NCCC)cc1	920 nM				
CCCc1nc(SC)c(C(=O)C[S+]([O-])c2ccc(C)cc2)n1Cc1ccc(-c2ccccc2S(=O)(=O)NC(=O)NCc2ccccc2)cc1 (single isomer, unassigned; 7g)	1.4 nM	0.07 nM	0.03 mg/kg	1.5 mg/kg	
CCCc1nc(SC)c(C(=O)C[S+]([O-])c2ccccc2)n1Cc1ccc(-c2ccccc2S(=O)(=O)NC(=O)NCc2ccccc2)cc1 (configuration not stated)	2.8 nM	0.08 nM	0.04 mg/kg	0.8 mg/kg	
CCCCc1nc(SC)c(C(=O)O)n1Cc1ccc(-c2ccccc2S(=O)(=O)NC(=O)NCc2ccccc2)cc1	17 nM				
CCCCc1nc(SC)c(C(=O)C(CCC)S(=O)(=O)c2ccccc2)n1Cc1ccc(-c2ccccc2S(=O)(=O)NC(=O)NCc2ccccc2)cc1 (configuration not stated)	180 nM	1.8 nM			
CCCCc1nc(SC)c(C(=O)CC(=O)c2ccccc2)n1Cc1ccc(-c2ccccc2S(=O)(=O)NC(=O)NCc2ccccc2)cc1	114 nM	0.2 nM			
CCCCc1nc(SC)c(C(=O)C[S+]([O-])c2ccccc2)n1Cc1ccc(-c2ccccc2S(=O)(=O)NC(=O)NCc2ccccc2)cc1 (configuration not stated)	3 nM	0.04 nM	0.12 mg/kg	1.6 mg/kg	
CCCc1nc(SC)c(C(=O)CC#N)n1Cc1ccc(-c2ccccc2S(=O)(=O)NC(=O)NCc2ccccc2)cc1	110 nM	0.3 nM			
CCCc1nc(SC)c(C(=O)CSc2ccccc2)n1Cc1ccc(-c2ccccc2S(=O)(=O)NC(=O)NCc2ccccc2)cc1	93 nM	0.2 nM			
